Values of other authors as cited in patent US20190175566A1, “ANTI-TUMOR COCKTAIL COMPRISING AN ANTI-TUMOR AGENT SELECTIVE FOR TUMOR ACIDITY, AN ANTIOXIDANT, AND A P-GLYCOPROTEIN INHIBITOR” (ARION TECNOLOGIA BRASIL- GESTAO DE ATIVOS S/A, priority 2016, published 2019).
Read-outs that look alike come from different tables or passages of the source.

Legend:
[1] = in mice, intravenous route

**Q.** Which “toxicity (LD50)” value (route not given) does the source give for O=C(O)c1c2ccccc2nc2ccccc12 [9-acridine carboxylic acid] here?
**A.** 240 mg/kg

**Q.** What about the “toxicity (LD50)” value (via intraperitoneal application (subcutaneously)) of the same compound?
**A.** 240 mg/kg

**Q.** For COC1=C(OC)C(=O)C(C/C=C(\C)CC/C=C(\C)CC/C=C(\C)CC/C=C(\C)CC/C=C(\C)CC/C=C(\C)CC/C=C(\C)CC/C=C(\C)CC/C=C(\C)CCC=C(C)C)=C(C)C1=O [Co-Q10, Coenzyme Q10], which “toxicity (LD50)” value (orally) is on record?
**A.** ~20000 mg/kg

**Q.** Which “toxicity (LD50)” value [1] does the source give for COc1cc2c(cc1OC)CN(CCc1ccc(NC(=O)c3cc(OC)c(OC)cc3NC(=O)c3cnc4ccccc4c3)cc1)CC2 [Tariquidar, tariquidar] here?
**A.** 300 mg/kg
